Species: Rattus norvegicus
Assay: Open TG-GATES - Regimen: Single
Assay type: toxicity, organism-based, Sprague-Dawley
Set-up: regimen Single, gender Male, age 6 weeks
Conditions: in vivo, po, route gavage; for TP / gamma-GTP / ALT / AST / BUN / CRE / DBIL / GLC / IP / K / LDH / RALB / TBIL / TC / ALP / PL: tissue Plasma; for APTT / Bas / Eos / Fbg / Ht / Lym / MCHC / MCV / Mono / PT / Plat / RBC / Ret / WBC: tissue Blood; for KIDNEY_L / KIDNEY_R / KIDNEY_TOTAL: tissue Kidney; for LIVER: tissue Liver
[1] = 30 mg/kg, 3 h, dose level Middle
[2] = 30 mg/kg, 6 h, dose level Middle
[3] = 30 mg/kg, 9 h, dose level Middle
[4] = 30 mg/kg, 24 h, dose level Middle
[5] = 100 mg/kg, 3 h, dose level High
[6] = 100 mg/kg, 6 h, dose level High
[7] = 100 mg/kg, 9 h, dose level High
[8] = 100 mg/kg, 24 h, dose level High

Work on `CN(C)CCCN1c2ccccc2CCc2ccccc21` [IMIPRAMINE] yielded a TP (10 mg/kg, 24 h, dose level Low) of 5.4 g/dL, a gamma-GTP (10 mg/kg, 24 h, dose level Low) of 1 IU/L and a TERMINAL_BW [1] of 202.2 g. The APTT [1] was 16.3 s, the Bas [1] was 0.2% and the Eos [1] was 1%. It also gave a Fbg [1] of 313 mg/dL, a Ht [1] of 42.7% and a Lym [1] of 78.8%. For the same compound, the MCHC [1] was 32.4%, the MCV [1] was 65.8 fL and the Mono [1] was 3%. For the same compound, the PT [1] was 15.6 s, the Plat [1] was 106.2 x10_4/uL and the RBC [1] was 651.2 x10_4/ul. The Ret [1] was 8.1%, the WBC [1] was 75.9 x10_2/uL and the KIDNEY_L [1] was 0.9 g. The KIDNEY_R [1] was 0.9 g, the KIDNEY_TOTAL [1] was 1.8 g and the LIVER [1] was 9.5 g. It also gave an ALT [1] of 43.4 IU/L, an AST [1] of 70.2 IU/L and a BUN [1] of 7.8 mg/dL. The CRE [1] was 0.1 mg/dL, the DBIL [1] was 0.008 mg/dL and the GLC [1] was 191.6 mg/dL. For the same compound, the IP [1] was 9.1 mg/dL, the K [1] was 4 meq/L and the LDH [1] was 88.4 IU/L. It also gave an RALB [1] of 2.6 g/dL, a TBIL [1] of 0.058 mg/dL and a TC [1] of 79.2 mg/dL. It also gave a TP [1] of 5.6 g/dL, a gamma-GTP [1] of 1 IU/L and a TERMINAL_BW [2] of 198.5 g. It also gave an APTT [2] of 16.1 s, a Bas [2] of 0% and an Eos [2] of 1%. For the same compound, the Fbg [2] was 311.6 mg/dL, the Ht [2] was 41.9% and the Lym [2] was 72.6%. It also gave an MCHC [2] of 32.7%, an MCV [2] of 63.9 fL and a Mono [2] of 3.2%. For the same compound, the PT [2] was 15.7 s, the Plat [2] was 122.8 x10_4/uL and the RBC [2] was 656 x10_4/ul. The Ret [2] was 7.6%, the WBC [2] was 81.3 x10_2/uL and the KIDNEY_L [2] was 0.9 g. For the same compound, the KIDNEY_R [2] was 0.9 g, the KIDNEY_TOTAL [2] was 1.8 g and the ALP [2] was 1270.6 IU/L. The ALT [2] was 40.2 IU/L, the AST [2] was 72.8 IU/L and the BUN [2] was 6.2 mg/dL. For the same compound, the CRE [2] was 0.1 mg/dL, the DBIL [2] was 0.01 mg/dL and the GLC [2] was 177.4 mg/dL. For the same compound, the IP [2] was 9.8 mg/dL, the K [2] was 4.1 meq/L and the LDH [2] was 138.2 IU/L. For the same compound, the RALB [2] was 2.5 g/dL, the TBIL [2] was 0.062 mg/dL and the TC [2] was 81.2 mg/dL. It also gave a TP [2] of 5.4 g/dL, a gamma-GTP [2] of 1.4 IU/L and a TERMINAL_BW [3] of 197.4 g. The APTT [3] was 15.4 s, the Bas [3] was 0% and the Eos [3] was 1%. The Fbg [3] was 290.8 mg/dL, the Ht [3] was 42.1% and the Lym [3] was 78.4%. It also gave an MCHC [3] of 32.5%, an MCV [3] of 65.8 fL and a Mono [3] of 1.8%. The PT [3] was 15.8 s, the Plat [3] was 111.8 x10_4/uL and the RBC [3] was 639.4 x10_4/ul. It also gave a Ret [3] of 7.8%, a WBC [3] of 69.2 x10_2/uL and a KIDNEY_L [3] of 0.9 g. The KIDNEY_R [3] was 1 g, the KIDNEY_TOTAL [3] was 1.9 g and the LIVER [3] was 8.4 g. It also gave an ALP [3] of 1205.4 IU/L, an ALT [3] of 35.8 IU/L and an AST [3] of 65.2 IU/L. For the same compound, the BUN [3] was 5.8 mg/dL, the CRE [3] was 0.1 mg/dL and the DBIL [3] was 0.01 mg/dL. It also gave a GLC [3] of 191 mg/dL, an IP [3] of 9.6 mg/dL and a K [3] of 4.1 meq/L. The LDH [3] was 64.6 IU/L, the PL [3] was 131.2 mg/dL and the RALB [3] was 2.5 g/dL. It also gave a TBIL [3] of 0.06 mg/dL, a TC [3] of 68 mg/dL and a TP [3] of 5.3 g/dL. The gamma-GTP [3] was 0.8 IU/L, the TERMINAL_BW [4] was 209.9 g and the APTT [4] was 16.1 s. The Bas [4] was 0%, the Eos [4] was 1% and the Fbg [4] was 298.2 mg/dL. It also gave a Ht [4] of 41.7%, a Lym [4] of 82% and an MCHC [4] of 32.6%. It also gave an MCV [4] of 64.6 fL, a Mono [4] of 2.4% and a PT [4] of 16.5 s. The Plat [4] was 119.3 x10_4/uL, the RBC [4] was 644.8 x10_4/ul and the Ret [4] was 7.6%. For the same compound, the WBC [4] was 75.5 x10_2/uL, the KIDNEY_L [4] was 0.9 g and the KIDNEY_R [4] was 0.9 g. For the same compound, the KIDNEY_TOTAL [4] was 1.8 g, the LIVER [4] was 9.2 g and the ALP [4] was 1509.8 IU/L. For the same compound, the ALT [4] was 45.6 IU/L, the AST [4] was 69.6 IU/L and the CRE [4] was 0.2 mg/dL. The GLC [4] was 177 mg/dL, the IP [4] was 7.8 mg/dL and the K [4] was 4.2 meq/L. For the same compound, the LDH [4] was 101.8 IU/L, the RALB [4] was 2.7 g/dL and the TBIL [4] was 0.06 mg/dL. The TC [4] was 85.2 mg/dL, the TP [4] was 5.6 g/dL and the gamma-GTP [4] was 1 IU/L. It also gave a TERMINAL_BW [5] of 202.6 g, an APTT [5] of 16.3 s and a Bas [5] of 0%. It also gave an Eos [5] of 0.5%, a Fbg [5] of 283.8 mg/dL and a Ht [5] of 40.4%. The Lym [5] was 72.5%, the MCHC [5] was 32.8% and the MCV [5] was 63.6 fL. For the same compound, the Mono [5] was 3.2%, the PT [5] was 15.8 s and the Plat [5] was 110.1 x10_4/uL. It also gave an RBC [5] of 635.8 x10_4/ul, a Ret [5] of 8.6% and a WBC [5] of 79.2 x10_2/uL. The KIDNEY_L [5] was 0.9 g, the KIDNEY_R [5] was 0.9 g and the KIDNEY_TOTAL [5] was 1.8 g. For the same compound, the LIVER [5] was 9.4 g, the ALP [5] was 1336.2 IU/L and the ALT [5] was 45 IU/L. It also gave an AST [5] of 73.5 IU/L, a BUN [5] of 6.8 mg/dL and a CRE [5] of 0.1 mg/dL. The DBIL [5] was 0.0125 mg/dL, the GLC [5] was 190.8 mg/dL and the IP [5] was 10 mg/dL. For the same compound, the K [5] was 3.9 meq/L, the LDH [5] was 61 IU/L and the PL [5] was 138 mg/dL. For the same compound, the RALB [5] was 2.5 g/dL, the TBIL [5] was 0.07 mg/dL and the TC [5] was 69 mg/dL. For the same compound, the TP [5] was 5.3 g/dL, the gamma-GTP [5] was 1.2 IU/L and the TERMINAL_BW [6] was 200.3 g. The APTT [6] was 15.9 s, the Bas [6] was 0% and the Eos [6] was 0.8%. For the same compound, the Fbg [6] was 299.4 mg/dL, the Ht [6] was 42.4% and the Lym [6] was 71.2%. The MCHC [6] was 32.2%, the MCV [6] was 66.2 fL and the Mono [6] was 3%. The PT [6] was 15.8 s, the Plat [6] was 108.9 x10_4/uL and the RBC [6] was 641.6 x10_4/ul. The Ret [6] was 8.3%, the WBC [6] was 74.4 x10_2/uL and the KIDNEY_L [6] was 0.9 g. It also gave a KIDNEY_R [6] of 0.9 g, a KIDNEY_TOTAL [6] of 1.8 g and an ALP [6] of 1251.8 IU/L. For the same compound, the ALT [6] was 37 IU/L, the AST [6] was 64.2 IU/L and the BUN [6] was 6.4 mg/dL. For the same compound, the CRE [6] was 0.1 mg/dL, the DBIL [6] was 0.01 mg/dL and the GLC [6] was 182 mg/dL. It also gave an IP [6] of 9.9 mg/dL, a K [6] of 4 meq/L and an LDH [6] of 62.8 IU/L. The RALB [6] was 2.5 g/dL, the TBIL [6] was 0.062 mg/dL and the TC [6] was 83.8 mg/dL. It also gave a TP [6] of 5.4 g/dL, a gamma-GTP [6] of 1.2 IU/L and a TERMINAL_BW [7] of 199.8 g. The APTT [7] was 16.1 s, the Bas [7] was 0.2% and the Eos [7] was 0.8%. It also gave a Fbg [7] of 309.4 mg/dL, a Ht [7] of 42% and a Lym [7] of 73%. For the same compound, the MCHC [7] was 32.2%, the MCV [7] was 66.8 fL and the Mono [7] was 2.4%. For the same compound, the PT [7] was 15.8 s, the Plat [7] was 111.5 x10_4/uL and the RBC [7] was 629.2 x10_4/ul. For the same compound, the Ret [7] was 8.8%, the WBC [7] was 70.8 x10_2/uL and the KIDNEY_L [7] was 0.9 g. For the same compound, the KIDNEY_R [7] was 0.9 g, the KIDNEY_TOTAL [7] was 1.8 g and the LIVER [7] was 8.3 g. For the same compound, the ALP [7] was 1131.2 IU/L, the ALT [7] was 35.6 IU/L and the AST [7] was 63.6 IU/L. The BUN [7] was 5.2 mg/dL, the CRE [7] was 0.1 mg/dL and the GLC [7] was 179.2 mg/dL. For the same compound, the IP [7] was 10.2 mg/dL, the K [7] was 4.1 meq/L and the LDH [7] was 59.2 IU/L. The RALB [7] was 2.5 g/dL, the TBIL [7] was 0.056 mg/dL and the TC [7] was 80.8 mg/dL. It also gave a TP [7] of 5.4 g/dL, a gamma-GTP [7] of 1 IU/L and a TERMINAL_BW [8] of 198.2 g. For the same compound, the APTT [8] was 16 s, the Bas [8] was 0% and the Eos [8] was 0.6%. The Fbg [8] was 293.2 mg/dL, the Ht [8] was 42.6% and the Lym [8] was 82.6%. The MCHC [8] was 32.4%, the MCV [8] was 65.1 fL and the Mono [8] was 2%. For the same compound, the PT [8] was 16.6 s, the Plat [8] was 116.4 x10_4/uL and the RBC [8] was 655.2 x10_4/ul. It also gave a Ret [8] of 7.3%, a WBC [8] of 49 x10_2/uL and a KIDNEY_L [8] of 0.9 g. The KIDNEY_R [8] was 0.9 g, the KIDNEY_TOTAL [8] was 1.8 g and the LIVER [8] was 8.1 g. It also gave an ALP [8] of 1350.6 IU/L, an ALT [8] of 35.4 IU/L and an AST [8] of 61 IU/L. It also gave a BUN [8] of 12.8 mg/dL, a CRE [8] of 0.2 mg/dL and a DBIL [8] of 0.02 mg/dL. It also gave a GLC [8] of 176.4 mg/dL, an IP [8] of 8.2 mg/dL and a K [8] of 4.5 meq/L. The LDH [8] was 62.8 IU/L, the PL [8] was 137.8 mg/dL and the RALB [8] was 2.6 g/dL. For the same compound, the TBIL [8] was 0.062 mg/dL, the TC [8] was 83.2 mg/dL and the TP [8] was 5.6 g/dL. It also gave a gamma-GTP [8] of 1.2 IU/L.

Reference: ChEMBL document CHEMBL3885861, “Open TG-GATES”
